Measurements as given in patent US20240246981A1, “[…] DERIVATIVES AS INHIBITORS OF […]-PEPTIDE CYCLOTRANSFERASE AND […]-PEPTIDE CYCLOTRANSFERASE LIKE PROTEIN” (Boehringer Ingelheim International GmbH, priority 2022, published 2024).
pIC50: −log10 of the molar value. Where two headings read alike, the source gives them in different places.

How the values were obtained:
QPCTL = QPCTL (Homo sapiens (Human), UniProt Q9NXS2); experiment: Assay A: biochemical QPCTL activity assay (MALDI-TOF MS); details: compounds of the invention, Table 2; read-out: Inhibition of QPCTL: IC50
QPCTL, sequence (Q9NXS2 whole entry): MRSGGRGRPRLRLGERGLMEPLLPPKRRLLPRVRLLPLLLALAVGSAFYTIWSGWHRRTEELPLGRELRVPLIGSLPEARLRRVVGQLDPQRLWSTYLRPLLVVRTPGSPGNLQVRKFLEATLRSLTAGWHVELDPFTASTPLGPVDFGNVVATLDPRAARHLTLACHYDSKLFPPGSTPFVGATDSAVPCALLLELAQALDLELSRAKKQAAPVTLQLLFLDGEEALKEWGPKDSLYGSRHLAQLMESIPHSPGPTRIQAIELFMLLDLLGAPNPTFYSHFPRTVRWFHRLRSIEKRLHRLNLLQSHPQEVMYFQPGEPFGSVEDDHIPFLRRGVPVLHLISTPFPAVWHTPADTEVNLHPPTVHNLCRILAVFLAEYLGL
Protocol: (§1) QPCT or QPCTL dependent conversion of N-terminal glutamine to pyroglutamate of CD47 was monitored via MALDI-TOF MS. Test compounds were dissolved in 100% DMSO and serially diluted into clear 1,536-well microtiter plates. Enzymatic reactions were set up in assay buffer containing 20 mM Tris pH 7.5, 0.1 mM TCEP, 0.01% BSA, and 0.001% Tween20. […] The plates were incubated for 10 min in a humidified incubator at 24° C. Subsequently, 2.5 μL of CD47 peptide substrate surrogate (^19[…]^33) was added to each well (final concentration: 10 μM for QPCTL/20 μM for QPCT). The plates were mixed for 30 sec at 1,000 rpm and subsequently incubated for 40 min in a humidified incubator at 24° C. […] The plates were sealed with an adhesive foil, mixed for 30 s at 1,000 rpm and stored at room temperature until preparation of the MALDI target plates. […] QPCT or QPCTL activity was monitored by calculating the ratio between product and internal standard signals followed by normalization to high (100% activity) and low (0% activity) controls. Determination of compound potencies was obtained by fitting the dose-response data to a four-parameter logistical equation.

QPCT = QPCT (Homo sapiens (Human), UniProt Q16769); experiment: Assay A: biochemical QPCT activity assay (MALDI-TOF MS); details: compounds of the invention, Table 2; read-out: Inhibition of QPCT: IC50
QPCT, sequence (Q16769 29-361): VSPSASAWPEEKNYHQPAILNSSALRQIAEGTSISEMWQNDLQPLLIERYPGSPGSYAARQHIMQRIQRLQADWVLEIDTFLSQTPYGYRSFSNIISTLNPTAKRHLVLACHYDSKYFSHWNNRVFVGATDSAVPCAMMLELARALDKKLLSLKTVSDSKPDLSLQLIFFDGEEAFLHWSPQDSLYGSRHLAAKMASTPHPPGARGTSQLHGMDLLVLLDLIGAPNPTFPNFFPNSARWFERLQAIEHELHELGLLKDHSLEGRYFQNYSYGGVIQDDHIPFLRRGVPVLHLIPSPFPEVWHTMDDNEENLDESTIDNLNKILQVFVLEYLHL
Protocol: as §1

[1] = tested on: SIRPα signalling induced by Raji cells; experiment: Assay B: SIRPα signalling assay using Raji cells; type: cell-based, human; details: Homo sapiens
Protocol: Bioassay reagent 1 of the PathHunter Bioassay detection kit (DiscoverX 93-0001) was added to each well of the plate using a multichannel pipette followed by a 15 min incubation at room temperature. Afterwards bioassay reagent 2 was added followed by 60 min incubation at room temperature (incubation in the dark).
(§2) The analysis of the data was performed using the luminescence signal generated by beta-galactosidase in the PathHunter reporter cell line. The luminescence measurement was done using a Pherastar Multi-Mode Reader.

[2] = tested on: SIRPα signalling induced by A549 cells; experiment: Assay B: SIRPα signalling assay using A549 cells; type: cell-based, human; details: Homo sapiens
Protocol: Two cell types are independently used: the Raji cell line (lymphoblastlike human cell line derived from B lymphocytes from a Burkitt's lymphoma patient in 1963) and A549 cells (adenocarcinomic human alveolar basal epithelial cells).
Test compounds were dissolved in 100% DMSO and serially diluted into a white 384-well microtiter cell culture plate (PerkinElmer #60076780 in case of Raji assay; PDL-coated plates Greiner #781945 in case of A549 assay). 5000 Raji cells (ATCC #CC86) or 5000 A549 cells (ATCC #CCL-185) in Assay Complete Cell Plating reagent 30 (DiscoverX 93-0563R30B) were added per well. The assay plate was incubated for 48 h at 37° C., 95% humidity and 5% CO2. 15000 reporter cells (Jurkat PathHunter SIRPα V1, DiscoverX #93-1135C19) were added to each well, and the plate was incubated for 5 h at 37° C., 95% humidity and 5% CO2. Bioassay reagent 1 of the PathHunter Bioassay detection kit (DiscoverX 93-0001) was added to each well of the plate using a multichannel pipette followed by a 15 min incubation at room temperature. Afterwards bioassay reagent 2 was added followed by 60 min incubation at room temperature (incubation in the dark).
as §2, with “Reader. Dose-response curves & IC50 data were calculated with 4-parameter sigmoidal dose response formula.” for “Reader.”

[3] = Assay C: permeability in CACO-2 cells; type: in vitro ADME; details: human, pH 7.2; for Papp A→B / Papp A→B at 2 h: Caco-2, apical to basolateral; for efflux ratio / efflux ratio at 2 h: Caco-2
Protocol: Compounds are dissolved in appropriate solvent (like DMSO, 1-20 mM stock solutions). […] The transport solution (TL) is applied to the apical or basolateral donor side for measuring A-B or B-A permeability (3 filter replicates), respectively. Samples are collected at the start and end of experiment from the donor and at various time intervals for up to 2 hours also from the receiver side for concentration measurement by HPLC-MS/MS or scintillation counting. Sampled receiver volumes are replaced with fresh receiver solution.

[4] = compounds of the invention, Table 4, read-out: Inhibition of SIRα signalling induced by Raji cells: IC50
[5] = compounds of the invention, Table 4, read-out: Inhibition of SIRα signalling induced by A549 cells: IC50
[6] = compounds of the invention, Table 7

SMILES	pIC50 (QPCTL)	pIC50 (QPCT)	pIC50 [1, 4]	pIC50 [2, 5]	Papp A→B [3, 6] [×10⁻⁶ cm/s]	efflux ratio [3, 6]	Papp A→B at 2 h [3, 6] [×10⁻⁶ cm/s]	efflux ratio at 2 h [3, 6]	pIC50 ([1]; prior art compounds, Table 5, read-out: Inhibition of SIRPα signalling induced by Raji cells: IC50)	pIC50 ([2]; prior art compounds, Table 5, read-out: Inhibition of SIRPα signalling induced by A549 cells: IC50)	Papp A→B at 2 h ([3]; prior art compounds, Table 8) [×10⁻⁶ cm/s]
Cn1cnnc1C1CCN(c2c(C#N)cccc2-c2cncc3cnn(Cc4ccccc4)c23)CC1 [compound 76]	9.00	8.30	7.40	7.34	2.6	22.3	–	–	–	–	–
Cn1cnnc1C1(F)CCN(c2c(C#N)cccc2-c2cnc(=O)n(Cc3ccccc3)c2)CC1 [compound 59]	8.70	8.10	6.13	6.21	0.4	34.1	–	–	–	–	–
COC(=O)c1cncc(-c2cccc(C#N)c2N2CCC(c3nncn3C)CC2)c1 [compound 27]	7.82	7.00	6.32	–	4.4	13.4	–	–	–	–	–
COc1cc(-c2cccc(C#N)c2N2CCC(F)(c3nncn3C)CC2)cnc1F [compound 53]	9.00	8.52	7.09	7.66	35	1.3	–	–	–	–	–
Cn1cnnc1C1(F)CCN(c2c(C#N)cccc2-c2cnc3nc(C(C)(C)C)[nH]c3c2)CC1 [compound 69]	–	–	7.96	8.00	0.5	56.9	–	–	–	–	–
Cn1cnnc1C1(F)CCN(c2c(C#N)cccc2-c2cnc3nc(C(F)(F)F)nn3c2)CC1 [compound 73]	8.40	8.10	6.58	6.91	3.3	14.8	–	–	–	–	–
Cc1cncc(-c2cccc(C#N)c2N2CCC(c3nncn3C)CC2)c1 [compound 11]	7.68	6.89	6.43	6.36	8.6	7.7	–	–	–	–	–
Cn1cnnc1C1CCN(c2c(C#N)cccc2-c2cncc(C3CC3)c2)CC1 [compound 15]	7.55	6.98	6.13	6.52	10.3	8.7	–	–	–	–	–
Cn1cnnc1C1(F)CCN(c2c(C#N)cccc2-c2cnc(F)cc2Cl)CC1 [compound 85]	8.52	8.40	7.15	7.10	–	1.8	–	–	–	–	–
Cn1ccnc1-c1cncc(-c2cccc(C#N)c2N2CCC(c3nncn3C)CC2)c1 [compound 30]	9.00	8.52	6.87	6.91	< 0.3	> 32	–	–	–	–	–
Cn1cnnc1C1(F)CCN(c2c(C#N)cccc2-c2cnc3nn(C(F)(F)F)cc3c2)CC1 [compound 75]	9.00	9.00	8.15	8.15	12	4	–	–	–	–	–
Cn1cc2cc(-c3cccc(C#N)c3N3CCC(c4nncn4C)CC3)cnc2n1 [compound 22]	9.00	8.52	7.06	6.94	0.2	50.6	–	–	–	–	–
Cn1cnnc1C1(F)CCN(c2c(C#N)cccc2-c2ccc(F)nc2)CC1 [compound 56]	9.00	8.52	7.54	8.15	50	0.7	–	–	–	–	–
Cc1cc(F)ncc1-c1cccc(C#N)c1N1CCC(c2nncn2C)CC1 [compound 4]	8.70	7.92	7.06	7.89	16	4.1	–	–	–	–	–
Cn1cnnc1C1CCN(c2c(C#N)cccc2-c2cnc(F)c(OC3CC3)c2)CC1 [compound 47]	8.70	8.10	7.11	7.28	13	6	–	–	–	–	–
Cc1cc(C)n(-c2cncc(-c3cccc(C#N)c3N3CCC(c4nncn4C)CC3)c2)n1 [compound 51]	8.70	8.10	6.83	7.28	3.4	12.9	–	–	–	–	–

SMILES	pIC50 (QPCTL)	pIC50 (QPCT)	pIC50 [1, 4]	pIC50 [2, 5]	Papp A→B [3, 6] [×10⁻⁶ cm/s]	efflux ratio [3, 6]	Papp A→B at 2 h [3, 6] [×10⁻⁶ cm/s]	efflux ratio at 2 h [3, 6]	pIC50 ([1]; prior art compounds, Table 5, read-out: Inhibition of SIRPα signalling induced by Raji cells: IC50)	pIC50 ([2]; prior art compounds, Table 5, read-out: Inhibition of SIRPα signalling induced by A549 cells: IC50)	Papp A→B at 2 h ([3]; prior art compounds, Table 8) [×10⁻⁶ cm/s]
Cn1cnnc1C1(F)CCN(c2c(C#N)cccc2-c2cnc(=O)n(C)c2)CC1 [Example 58]	–	–	6.31	6.60	–	–	< 0.3	> 4.3	–	–	–
Cn1cnnc1C1(C)CCN(c2c(C#N)cccc2-c2cccnc2)CC1 [Example 65]	–	–	5.98	–	–	–	9.8	4.9	–	–	–
Cn1cnnc1C1CCN(c2c(C#N)cccc2-c2cnc(F)c(OC3CCC3)c2)CC1 [Example 34]	–	–	7.28	7.60	–	–	22	3.3	–	–	–
Cn1cnnc1C1CCN(S(=O)(=O)c2cccc(Nc3ccc(F)nc3)c2)CC1 [compound 21, reference compound]	–	–	–	–	–	–	–	–	< 5.00	< 5.00	0.7
Cn1cnnc1C1(F)CCN(c2c(C#N)cccc2-c2cnc(O)nc2)CC1 [compound 54]	–	9.00	6.07	6.69	0.1	11.1	–	–	–	–	–
Cn1cnnc1C1CCN(c2c(C#N)cccc2-c2cncc(CO)c2)CC1 [compound 9]	7.96	7.42	6.51	–	–	–	–	–	–	–	–
Cn1cnnc1C1CCN(c2c(C#N)cccc2-c2cnc3nn(C)c(C(F)(F)F)c3c2)CC1 [Example 41]	–	–	7.06	7.01	–	–	2.9	–	–	–	–
Cn1cnnc1C1CCN(c2c(C#N)cccc2-c2cnc(F)c(Oc3ccccc3)c2)CC1 [Example 38]	–	–	6.43	7.01	–	–	20	1.9	–	–	–
Cn1cnnc1C1CCN(c2c(C#N)cccc2-c2cncc(C(N)=O)c2)CC1 [compound 14]	8.52	7.68	6.12	–	0.1	50.9	–	–	–	–	–
Cn1cnnc1C1(F)CCN(c2c(C#N)cccc2-c2cnc3nn(CC(F)(F)F)cc3c2)CC1 [Example 55]	–	–	7.42	7.36	–	–	1.4	40	–	–	–
Cn1cnnc1C1CCN(c2c(C#N)cccc2-c2cncc(-c3ccccc3)c2)CC1 [compound 21, reference compound]	–	–	5.88	6.28	–	–	33	2.8	–	–	–
Cn1cnnc1C1CCN(c2c(C#N)cccc2-c2cnc(F)c(OC(F)F)c2)CC1 [Example 37]	–	–	6.49	6.95	–	–	23	2	–	–	–
Cn1cnnc1C1(F)CCN(c2c(C#N)cccc2-c2cnc3nn(CC(F)F)cc3c2)CC1 [compound 60]	–	9.00	7.77	7.80	0.5	100	–	–	–	–	–
Cn1cnnc1C1CCN(c2c(C#N)cccc2-c2cncc(OC(F)F)c2)CC1 [compound 23, reference compound]	–	–	5.97	6.47	–	–	10.1	7.1	–	–	–
Cn1cnnc1C1CCN(c2c(C#N)cccc2-c2ccc(F)nc2)CC1 [Example 1]	–	–	–	8.05	–	–	28	–	–	–	–
